The structures appear in SMILES notation. pIC50: −log10 of the molar value. Square brackets hold non-standard residues; d marks the D form. Peptide text beside a SMILES is read from it. NMeDip = CN[C@H](C(=O)O)C(c1ccccc1)c1ccccc1; Dip = N[C@H](C(=O)O)C(c1ccccc1)c1ccccc1; NMeI = CC[C@H](C)[C@H](NC)C(=O)O

These results are taken from BindingDB's records for doi:10.1021/jm970161m (Warner-Lambert, 1997).

This experiment addresses Endothelin-1 receptor (Oryctolagus cuniculus). Briefly: Inhibition of binding to Endothelin A receptor of rabbit renal vascular smooth muscle cells.

Consider `CC[C@H](C)[C@H](NC(=O)[C@H]([C@@H](C)CC)N(C)C(=O)[C@H](CC(=O)O)NC(=O)[C@H](CC(C)C)NC(=O)[C@@H](NC(C)=O)C(c1ccccc1)c1ccccc1)C(=O)N[C@@H](Cc1c[nH]c2ccccc12)C(=O)O` (Ac-[Dip]LD[NMeI]IW-OH), for which the pIC50 (as a rule, the IC50 on a negative log10 scale, so that one unit is a factor of ten) was 6.15.

For the molecule `CC[C@H](C)[C@H](NC(=O)[C@H](CC(=O)O)NC(=O)[C@H](CC(C)C)NC(=O)[C@H](C(c1ccccc1)c1ccccc1)N(C)C(C)=O)C(=O)N[C@H](C(=O)N[C@@H](Cc1c[nH]c2ccccc12)C(=O)O)[C@@H](C)CC` (Ac-[NMeDip]LDIIW-OH), the pIC50 is 5.35.
